Measured values as given in US8338472B2, “Hexahydrocyclopentyl[F]indazole carboxamides and derivatives thereof as selective glucocorticoid receptor modulators” (Merck Sharp & Dohme Corp., priority 2008, dated 2012).
Like-named read-outs stand apart in the source and are kept apart here.

What was measured:
[1] = target: T1, Glucocorticoid Receptor (Homo sapiens, UniProt P04150); test: Trans-Activation Modulation of Glucocorticoid Receptor (GRAMMER), MMTV-LUC reporter gene in A549 cells; type: cell-based; conditions: for Emax: A549, A549 cells, read-out: Transactivation A549 Cells GRAMMER Emax; for Emax / Transactivation A549 Cells GRAMMER Emax: Emax relative to 300 nM dexamethasone; for EC50: inflection point, read-out: Transactivation A549 Cells GRAMMER IP; for EC50 / Transactivation A549 Cells GRAMMER Emax: A549 cells
T1 construct: These cells express large amount of the GR and are very responsive to GC treatment; endogenous in cells; host or cells: A549 cells transiently transfected with the MMTV-LUC reporter
T1 sequence (P04150 1-777): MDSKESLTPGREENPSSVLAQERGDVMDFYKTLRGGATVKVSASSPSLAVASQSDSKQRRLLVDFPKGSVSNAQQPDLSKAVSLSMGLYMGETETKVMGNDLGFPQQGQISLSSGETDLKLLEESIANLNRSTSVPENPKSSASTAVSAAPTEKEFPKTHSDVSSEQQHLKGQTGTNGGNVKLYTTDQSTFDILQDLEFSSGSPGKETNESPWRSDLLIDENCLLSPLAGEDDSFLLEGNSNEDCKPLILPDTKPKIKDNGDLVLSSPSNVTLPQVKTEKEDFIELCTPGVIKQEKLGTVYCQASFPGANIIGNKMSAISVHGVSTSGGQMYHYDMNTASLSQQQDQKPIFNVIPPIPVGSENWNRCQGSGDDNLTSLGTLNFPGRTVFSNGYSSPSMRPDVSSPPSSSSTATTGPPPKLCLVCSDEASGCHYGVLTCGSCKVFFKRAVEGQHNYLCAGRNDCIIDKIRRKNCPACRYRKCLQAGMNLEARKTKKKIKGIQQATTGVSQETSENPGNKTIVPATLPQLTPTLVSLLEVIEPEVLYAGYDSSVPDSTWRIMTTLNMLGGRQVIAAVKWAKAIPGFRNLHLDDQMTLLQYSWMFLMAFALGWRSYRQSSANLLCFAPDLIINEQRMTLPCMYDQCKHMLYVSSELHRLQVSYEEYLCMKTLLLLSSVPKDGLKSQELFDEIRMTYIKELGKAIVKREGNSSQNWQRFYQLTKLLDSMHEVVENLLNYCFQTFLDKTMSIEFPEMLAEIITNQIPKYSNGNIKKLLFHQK
Summary of the method: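 Luciferase from a transiently transfected MMTV-LUC reporter was measured after 24 h compound exposure (≤1% DMSO) in A549 or MDA-MB-453 cells. For antagonism, the decrease of 10 nM dexamethasone-induced signal was calculated. For agonism, Emax was referenced to 300 nM dexamethasone.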

[2] = target: T2, human GR (Homo sapiens, UniProt P04150); test: Transrepression Assay (GITAR), TNFα-β-lactamase reporter gene in U937 cells; type: cell-based; conditions: for Emax: U-937, U937 cells, read-out: Transrepression U937 Cells GITAR Emax; for Emax / Transrepression U937 Cells GITAR Emax: activity repressed by 100 nM dexamethasone = 100%; for EC50: inflection point, read-out: Transrepression U937 Cells GITAR IP; for EC50 / Transrepression U937 Cells GITAR Emax: U937 cells
T2 construct: U937 cells contain an endogenous glucocorticoid receptor (GR); endogenous in cells; host or cells: U937 cells stably transfected with the TNF-alpha promoter/beta-lactamase reporter
T2 sequence (P04150 1-777): T1 sequence (P04150 1-777)
Summary of the method: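 Repression of PMA (5 ng/ml final)/LPS (100 ng/ml final)-induced TNF-α promoter activity, read as β-lactamase cleavage of CCF2-AM, in stably transfected U937 cells expressing native GR. Compound added 30-45 min before stimulation, overnight (~18 hr) 37° C; normalized to 100 nM dexamethasone (100%).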

[3] = target: T3, glucocorticoid receptor (GR) (Homo sapiens, UniProt P04150); test: Ligand binding assay (GR BIND), 3H-dexamethasone displacement in MDA-MB-453 cell lysate
T3 sequence (P04150 1-777): T1 sequence (P04150 1-777)
Protocol: Binding Buffer: TEGM (10 mM Tris-HCl, 1 mM EDTA, 10% glycerol, 1 mM beta-mecaptoethanol, 10 mM Sodium Molybdate, pH 7.2)
50% HAP Slurry: Calbiochem Hydroxylapatite, Fast Flow, in 10 mM Tris, pH 8.0 and 1 mM EDTA.
Wash Buffer: 40 mM Tris, pH7.5, 100 mM KCl, 1 mM EDTA and 1 mM EGTA.
Dexmethasone-methyl-^3H, (DEX*); (Amersham cat# TRK645)
Dexamethasone(DEX) (Sigma, cat# D1756):
The cell pellet is washed twice with TEGM (10 mM Tris-HCl, 1 mM EDTA, 10% glycerol, 1 mM beta-mercaptoethanol, 10 mM Sodium Molybdate, pH 7.2). After the final wash, the cells are resuspended in TEGM at a concentration of 10^7 cells/mL. The cell suspension is snap frozen in liquid nitrogen or ethanol/dry ice bath and transferred to −80° C. freezer on dry ice. Before setting up the binding assay, the frozen samples are left on ice-water to just thaw (˜1 hr). Then the samples are centrifuged at 12,500 g to 20,000 g for 30 min at 4° C. The supernatant is used to set-up assay right away. If using 50 μL of supernatant, the test compound can be prepared in 50 μL of the TEGM buffer.
Procedure for Multiple Compound Screening
1×TEGM buffer is prepared, and the isotope-containing assay mixture is prepared in the following order: EtOH (2% final concentration in reaction), ^3H-DEX (Amersham Biosciences) and 1×TEGM. [e.g. For 100 samples, 200 μL (100×2) of EtOH+4.25 μL of 1:10 ^3H-Dex stock+2300 μL (100×23) 1×TEGM]. The compound is serially diluted, e.g., if starting final conc. is 1 μM, and the compound is in 25 μL of solution, for duplicate samples, 75 μL of 4×1 μM solution is made and 3 μL of 100 μM is added to 72 μL of buffer, and 1:5 serial dilution.
25 μL of ^3H-DEX (6 nM) trace and 25 μL compound solution are first mixed together, followed by addition of 50 μL receptor solution. The reaction is gently mixed, spun briefly at about 200 rpm and incubated at 4° C. overnight. 100 μL of 50% HAP slurry is prepared and added to the incubated reaction which is then vortexed and incubated on ice for 5 to 10 minutes. The reaction mixture is vortexed twice more to resuspend HAP while incubating reaction. The samples in 96-well format are then washed in wash buffer using The FilterMate™ Universal Harvester plate washer (Packard). The washing process transfers HAP pellet containing ligand-bound expressed receptor to Unifilter-96 GF/B filter plate (Packard). The HAP pellet on the filter plate is incubated with 50 μL of MICROSCINT (Packard) scintillint for 30 minutes before being counted on the TopCount microscintillation counter (Packard). IC50s are calculated using DEX as a reference.

[4] = GITAR Emax minus GRAMMER Emax, Table 1
[5] = compounds in the art (WO03/086294)

Row | Compound | Emax ([1]; Table 1) [%] | EC50 ([1]; Table 1) [nM] | GITAR Greater than by GRAMMER % SEP [2, 4] [%] | Emax ([2]; Table 1) [%] | EC50 ([2]; Table 1) [nM] | Ki ([3]; GR BIND Ki, Table 1) [nM] | Transactivation A549 Cells GRAMMER Emax ([1]; Table 1) [%] | Transrepression U937 Cells GITAR Emax ([2]; Table 1) [%] | Emax ([1]; compounds in the art) [%] | EC50 [1, 5] [nM] | GITAR > GRAMM % SEP ([2]; GITAR Emax minus GRAMMER Emax, compounds in the art) [%] | Emax ([2]; compounds in the art) [%] | EC50 [2, 5] [nM] | Ki ([3]; GR BIND Ki, compounds in the art (WO03/086294)) [nM] | Ki ([3]; read-out: GR BIND Ki, Table 1) [nM]
1 | C[C@]12Cc3cnn(-c4ccc(F)cc4)c3C=C1CC[C@@H]2C(=O)N(CCc1ccccc1F)CC(O)CC(F)(F)F (stereo partly drawn) [Compound 94, (4αR,5S)-l-(4-fluorophenyl)-N-[2-(2-fluorophenyl)ethyl]-4α-methyl-N-(4,4,4-trifluoro-2-hydroxybutyl)-1,4,4α,5,6,7-hexahydrocyclopenta[f]indazole-5-carboxamide] | 43.8 | 363 | 8.0 | 51.8 | 531 | 1.8 |  |  |  |  |  |  |  |  | 
2 | C[C@]12Cc3cnn(-c4ccc(F)cc4)c3C=C1CC[C@@H]2C(=O)N(CCc1ccccc1F)CC(O)CC(F)(F)F (stereo partly drawn) [Compound 95, (4αR,5S)-1-(4-fluorophenyl)-N-[2-(2-fluorophenyl)ethyl]-4α-methyl-N-(4,4,4-trifluoro-2-hydroxybutyl)-1,4,4α,5,6,7-hexahydrocyclopenta[f]indazole-5-carboxamide] |  | 374 | 7.3 |  | 282 | 1 | 46.9 | 54.2 |  |  |  |  |  |  | 
3 | C[C@]12Cc3cnn(-c4ccc(F)cc4)c3C=C1CC[C@@H]2C(=O)NCc1ccccc1 [reference compound] |  |  |  |  |  |  |  |  | 103 | 502 | -59.6 | 43.8 | 4280 | 21.1 | 
4 | (4αR,5S)-N,N-dibutyl-1-(4-fluorophenyl)- 4α-methyl-1,4,4α,5,6,7- hexahydrocyclopenta[f]indazole-5- carboxamide [Compound 9] |  | 360 | 15.9 |  | 497 |  | 38.5 | 54.4 |  |  |  |  |  |  | 1
